This note sets out measurements from patent US4879296A, “Xanthine derivatives” (Burroughs Wellcome co., priority 1985, dated 1989).

Data set [1] is described as follows: Standard LD50 test, intraperitoneal, mice. The note with it: mouse, in vivo, ip. The protocol: The toxicity of a representative number of compounds of the present invention was determined by using the standard LD50 test.
The target of data set [2] is T1, ADO-induced prolongation of the atrio-to-His bundle conduction time (Cavia porcellus, UniProt P47745).
T1 construct: isolated, perfused guinea-pig heart preparations; from tissue; host or cells: isolated, perfused guinea-pig heart
T1 sequence (P47745 1-326): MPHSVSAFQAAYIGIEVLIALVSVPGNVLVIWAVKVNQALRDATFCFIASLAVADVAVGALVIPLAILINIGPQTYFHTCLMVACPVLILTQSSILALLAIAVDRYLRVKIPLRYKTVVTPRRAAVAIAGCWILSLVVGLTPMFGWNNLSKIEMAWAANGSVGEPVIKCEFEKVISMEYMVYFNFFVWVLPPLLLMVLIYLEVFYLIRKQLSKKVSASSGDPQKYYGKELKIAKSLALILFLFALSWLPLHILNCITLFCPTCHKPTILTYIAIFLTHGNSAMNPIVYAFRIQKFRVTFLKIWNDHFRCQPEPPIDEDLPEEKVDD
The experiment in a line: Inhibition of ADO-induced prolongation of the atrio-to-His bundle conduction time in isolated, perfused guinea-pig heart. The note with it: five animals; 5 μm ADO infusion; Eadie-Scatchard plot of %INH; read-out: mean Kd(50). As for the experimental part: The ability of (E)-4-(1,2,3,6-tetrahydro-1,3-dimethyl-2,6-dioxo-9H-purin-8-yl)cinnamic acid to inhibit ADO-induced prolongation of the atrio-to-His bundle conduction time and, thus, its potential for the treatment of cardiac disorders including heart block, was evaluated in isolated, perfused guinea-pig heart preparations.
Male and female guinea-pigs were sacrificed by a blow to the head, and their hearts were quickly removed. The heart was then hung on a retro-grade aortic infusion apparatus. […]
Pacing was initiated at a rate that ensured one to one capture and later was set to 2-3 Hz. […] Two antagonists were evaluated per guinea-pig. […]
A.V. conduction times were measured from the HBE and LAE. […] Differences were then calculated by subtracting the control interval in question. Percentage ADO prolongation inhibition (%INH) was calculated by subtracting the A-A difference from the ADO difference, dividing by ADO difference, and multiplying by 100, thus %INH=(ADO diff.-ant. diff.)/ADO diff.*100.
The Kd(50) was then evaluated by an Fadie-Scatchard plot, where (%INH)/(antagonist conc.) was plotted on the ordinate and %INH on the abscissa. […]

In data set [3] the target is T2, purine receptors (Cavia porcellus, UniProt P47745).
T2 construct: Ilea were removed from sacrificed guinea pigs and placed in organ baths; from tissue; host or cells: guinea pig ileum
T2 sequence (P47745 1-326): T1 sequence (P47745 1-326)
The experiment in a line: Purine receptor antagonism in guinea pig ileum twitch test (agonist 2-chloroadenosine, Schild regression). As to conditions: for slope (Schild regression): value in brackets beside pA2, guinea pig ileum; for Kb: vs 2-chloroadenosine, Schild regression, may be considered the pKb, read-out: pA2 Guinea pig ileum (converted). The protocol: Accordingly, a representative number of compounds of the present invention were tested for their ability to antagonise the purine receptors using the guinea pig ileum test system.
Ilea were removed from sacrificed guinea pigs and placed in organ baths containing oxygenated Krebs-Henseleit buffer. After equilibration, the ilea were stimulated to contract (twitch contraction) using an electrical field-stimulus of 0.1 Hz, 0.05 ms duration and maximal voltage. Under these conditions, the twitch contraction results from the release of acetylcholine.
Concentration response curves to the purine agonist, 2-chloroadenosine, were determined first in the absence and then in the presence of multiple concentrations of the compounds of the invention. One concentration of each compound was used per tissue. Quantification of purine receptor antagonism was accomplished using the Schild regression technique, i.e. plots of log (dose-ratio-1) vs log compound concentration, and the pA2 determined by regression of the data points to the x-intercept, where log (dose-ratio-1) is zero.

As usually defined, the LD50 is the dose at which mortality reaches 50%. Read a high LD50 as lower toxicity. Broadly, the Kd is the equilibrium constant for the complex coming apart. Turning to `Cn1c(=O)c2nc(-c3ccc(/C=C/C(=O)O)cc3)[nH]c2n(C)c1=O` [Example 1, (E)-4-(1,2,3,6-tetrahydro-1,3,-dimethyl-2,6-dioxo-9H-purin-8-yl)cinnamic acid], the LD50 in data set [1] is > 500 mg/kg. The Kd in data set [2] is 190 nM.
Take `CCCn1c(=O)c2nc(-c3ccc(/C=C/C(=O)O)cc3)[nH]c2n(CCC)c1=O` [Example 6, (E)-4-(1,2,3,6-tetrahydro-2,6-dioxo-1,3-dipropyl-9H-purin-8-yl)cinnamic acid]: in data set [3], the “slope (Schild regression)” value is 0.9 and the Kb is 20 nM. For the same compound, the LD50 in data set [1] was > 500 mg/kg.
For the compound `CC(C)Cn1c(=O)[nH]c(=O)c2nc(-c3ccc(/C=C/C(=O)O)cc3)[nH]c21` [Example 10, (E)-4-(1,2,3,6-tetrahydro-3-isobutyl-2,6-dioxo-9H-purin-8-yl)cinnamic acid], the median lethal dose (LD50) in data set [1] was > 100 mg/kg.
On to `CCCn1c(=O)n(C)c(=O)c2nc(-c3ccc(/C=C/C(=O)O)cc3)[nH]c21` [Example 11, (E)-4-(1,2,3,6-tetrahydro-1-methyl-2,6-dioxo-3-propyl-9H-purin-8-yl)cinnamic acid], for which, in data set [3], the “slope (Schild regression)” value was 1.0 and the Kb was 100 nM.
As to `CC(C)Cn1c(=O)n(C)c(=O)c2nc(-c3ccc(/C=C/C(=O)O)cc3)[nH]c21` [Example 12, (E)-4-(1,2,3,6-tetrahydro-3-isobutyl-1-methyl-2,6-dioxo-9H-purin-8-yl)cinnamic acid], the LD50 in data set [1] was > 100 mg/kg.
Regarding `CCCCn1c(=O)c2nc(-c3ccc(/C=C/C(=O)O)cc3)[nH]c2n(CCCC)c1=O` [Example 14, (E)-4-(1,3-dibutyl-1,2,3,6-tetrahydro-2,6-dioxo-9H-purin-8-yl)cinnamic acid], in data set [3], the “slope (Schild regression)” value is recorded as 1.0 and the Kb is 31.6 nM. Further, in data set [1], the 50% lethal dose (LD50) was > 100 mg/kg.
Take `O=C(O)/C=C/c1ccc(-c2nc3c(=O)n(Cc4ccccc4)c(=O)n(Cc4ccccc4)c3[nH]2)cc1` [Example 15, (E)-4-(1,3-dibenzyl-1,2,3,6-tetrahydro-2,6-dioxo-9H-purin-8-yl)cinnamic acid]: in data set [3], the “slope (Schild regression)” value was found to be 0.9 and the Kb was 79.4 nM.
As for `CCCCn1c(=O)n(C)c(=O)c2nc(-c3ccc(/C=C/C(=O)O)cc3)[nH]c21` [Example 16, (E)-4-(3-butyl-1,2,3,6-tetrahydro-1-methyl-2,6-dioxo-9H-purin-8-yl)cinnamic acid], the LD50 in data set [1] was > 100 mg/kg.
On to `Cn1c(=O)c2nc(-c3ccc(/C=C/C(=O)O)cc3)[nH]c2n(Cc2ccccc2)c1=O` [Example 18, (E)-4-(3-benzyl-1,2,3,6-tetrahydro-1-methyl-2,6-dioxo-9H-purin-8-yl)cinnamic acid], for which, in data set [3], the “slope (Schild regression)” value came out at 0.9 and the Kb was 79.4 nM. Also, the LD50 in data set [1] is > 100 mg/kg.
With `CC(C)Cn1c(=O)c2nc(-c3ccc(/C=C/C(=O)O)cc3)[nH]c2n(CC(C)C)c1=O` [Example 19, (E)-4-(1,2,3,6-tetrahydro-1,3-diisobutyl-2,6-dioxo-9H-purin-8-yl)cinnamic acid], in data set [3], the “slope (Schild regression)” value is on record as 1.0 and the Kb was 35.5 nM.
In the case of `Cn1c(=O)c2[nH]cnc2n(C)c1=O` [THEOPHYLLINE, 1,3-dimethylxanthine, reference compound], the “slope (Schild regression)” value in data set [3] is recorded as 1.1.
